Laboratory results as given in patent publication US5858410A, “Pharmaceutical nanosuspensions for medicament administration as systems with increased saturation solubility and rate of solution” (Medac Gesellschaft Fur Klinische Spezialpraparate, priority 1994, dated 1999).

Test: Particle size of suspensions by PCS / laser diffractometer (LD)
Type: physicochemical
Excerpt: Wet grinding has been employed as a further grinding technique (Sandell, E., Grundriss der Galenischen Pharmazie [Principles of galenical pharmacy], Govi-Verlag GmbH, Frankfurt am Main, 1962), for example using a Premier Mill (Sandell, loc. cit.) or a ball or pearl mill (Hagers Handbuch der pharmazeutischen Praxis [Hagers handbook of pharmaceutical practice], Springer-Verlag, Berlin, 1925). Although a main population of particles in the nanometer range results when a pearl mill is used, a significant proportion of particles larger than 1 μm is still present. […] RNXP 22 was ground (Dispermat) in a pearl mill without addition of surfactant (FIG. 2: A) and with addition of 3% Tween 80 (FIG. 2: A+surfactant). The 50% diameter of the surfactant-free sample is already approx. 2 μm, i.e. 50% of the particles are >2 μm. Some of these micrometer particles can be attributed to agglomeration. As described in the literature (Sandell, loc. cit.; P. H. List, Arzneiformenlehre [Drug forms], Wissenschaftliche Verlagsgesellschaft mbH Stuttgart, 1976; Sucker, H., Speiser, P., Fuchs, P., Pharmazeutische Technologie [Pharmaceutical technology], George Thieme Verlag Stuttgart, 1978; Munzel, K., Buchi, J., Schultz, O.-E., Galenisches Praktikum [Practical galenics], Wissenschaftliche Verlagsgesellschaft mbH Stuttgart, 1959), aggregation in suspensions can be prevented by addition of surfactants (Tween 80, Pluronic F 68) or generally stabilizers (e.g. polyvinylpyrrolidone--PVP, Pluronic F 68). […] As a rule, this is also recommended by manufacturers of mills (e.g. Dyno-Mill, A. Bachoffen AG Maschinenfabrik). Surfactant-stabilized microparticles have also been patented (U.S. Pat. No. 5,246,707), it also being possible for these additionally to comprise iron particles within the microparticles in order to allow location of the particles via magnetic fields.
Another preparation method which has been known for a long time is "via humida paratum", precipitation by pouring a solution of the active compound into a non-solvent (Hagers Handbuch der pharmazeutischen Praxis [Hagers handbook of pharmaceutical practice], Springer-Verlag, Berlin, 1925). By pouring into the non-solvent, the Ostwald Mie range is rapidly passed through and a very fine precipitate separates out. The particles which have precipitated out likewise have a significant proportion in the micrometer range. […] The drug was dissolved in ethanol (3%, 20 ml) and the solution poured into 100 ml of an aqueous surfactant solution (1.2% Pluronic F68). The end of the measuring range is 80 μm, and a large fraction between approx. 18 μm to 80 μm was detected.
The powdered drug (ground in an air jet, particles up to more than 25 μm) was rubbed in a grinding dish with a concentrated surfactant solution for wetting, and the remaining aqua dest. was then added, while stirring. Alternatively, the drug powder can also be introduced into a surfactant solution by stirring. […] The average particle diameter of the parent suspensions (=suspension with 0 cycles), measured with the laser diffractometer, and of the resulting nanosuspensions by PCS (PI=polydispersity index):
Preparation of the suspension and subsequent homogenization as in example 1. […] To monitor the decrease in the particles also in the size range from 1 μm to several μm as a function of the number of cycles, the samples were analysed with the LD. The results were evaluated by plotting the 99% diameter against the number of cycles (FIG. 6). […]

[1] = ground in an air jet, LD (FIG. 1)

- 50% LD diameter (ground in a pearl mill, surfactant-free sample (FIG. 2: A)): approx. 2 μm
- particles >1 μm [1]: 92%
- particles in the range below 1,000 nm [1]: 8%
- particles smaller than 25 μm [1]: 100%
SMILES: C[C@@H]1CN(c2nc(N(CCO)CC(C)(C)O)c3nc(-c4ccccc4)c(N4C[C@@H](C)O[C@@H](C)C4)nc3n2)C[C@H](C)O1 [RMKP 22, 4-[N-(2-hydroxy-2-methylpropyl)-ethanolamine]-2.7-bis(cis-2.6-dimethylmorpholin-4-yl)-6-phenyl-pteridine]
- effect of surfactant on diameters of the volume distribution (pearl mill, addition of 3% Tween 80 (FIG. 2: A+surfactant)): only a slight reduction in the diameters of the volume distribution
